Among the test systems are EKVX NSCLC; SNB-75 CNS; MOLT-4 leukemia; A549 NSCLC; ACHN renal; HS 578T breast; SNB-19 CNS; SK-OV-3 ovarian; HCT-116 colon; CAKI-1 renal.
Test in all cases: inhibition of tumour cell growth, NCI panel, 48 h

Molecules are shown by their SMILES.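 In this assay, cells in 96-well plates receive the compound at five concentrations for 48 hours. Endpoints are linearly interpolated between the surrounding concentrations. Here, GI50 denotes the concentration required for 50% inhibition of growth. TGI: total growth inhibition.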 A value given as a limit tells only on which side of the number the result lay.

On to `C=CC(=O)N1CC[C@@H](Oc2nc(Nc3ccc(N4CCC(N5CCN(C)CC5)CC4)cc3)c(C(N)=O)nc2CC)C1`, for which the GI50 with EKVX NSCLC, in the test with SNB-75 CNS, with MOLT-4 leukemia, with A549 NSCLC, with ACHN renal and in the test on HS 578T breast was more than 100 µM in each case. The GI50 in the test with SNB-19 CNS, in the test with SK-OV-3 ovarian and in the test with HCT-116 colon was more than 100 µM each time. The TGI in the test on EKVX NSCLC, in the test on SNB-75 CNS, in the test with MOLT-4 leukemia, in the test on A549 NSCLC, in the test with ACHN renal and in the test on HS 578T breast was more than 100 µM throughout. The TGI with SNB-19 CNS, in the test on SK-OV-3 ovarian and in the test on HCT-116 colon was more than 100 µM each time.

In the case of `CCS(=O)(=O)Nc1ccc(Oc2ccc(F)cc2F)c(-c2cn(C)c(=O)c3[nH]ccc23)c1`, the GI50 with EKVX NSCLC is 0.196 µM; with SNB-75 CNS, less than 0.01 µM; in the test with MOLT-4 leukemia, 0.408 µM; with A549 NSCLC it was 0.152 µM; with ACHN renal, 0.153 µM; with HS 578T breast it was less than 0.0183 µM. Besides, the GI50 in the test with SNB-19 CNS is 0.31 µM; with SK-OV-3 ovarian, less than 0.0109 µM; with HCT-116 colon it was 0.0321 µM. Moreover, the TGI stood at 31.9 µM in the test on EKVX NSCLC; 0.986 µM in the test on SNB-75 CNS; 15.6 µM in the test on MOLT-4 leukemia; 28.1 µM in the test with A549 NSCLC; 27.2 µM in the test on ACHN renal; 36.5 µM in the test with HS 578T breast. The TGI in the test with SNB-19 CNS worked out at 30.9 µM; in the test on SK-OV-3 ovarian, 6.2 µM; in the test on HCT-116 colon, 12.8 µM.

In the case of `O=C(/C=C\c1ccc(Cl)c(Cl)c1)c1ccccc1`, the GI50 is 11.6 µM in the test on SNB-75 CNS; 5.36 µM in the test with MOLT-4 leukemia; 11.5 µM in the test with A549 NSCLC; 7.65 µM with ACHN renal; 17 µM in the test on HS 578T breast; 6.33 µM in the test on CAKI-1 renal. Also, the GI50 was 10.6 µM with SNB-19 CNS, 14.1 µM with SK-OV-3 ovarian and 1.91 µM in the test on HCT-116 colon. The TGI with SNB-75 CNS came to 23.8 µM; with MOLT-4 leukemia, 40.3 µM; with A549 NSCLC, 26.2 µM; in the test with ACHN renal, 20.5 µM; with HS 578T breast, 52.5 µM; with CAKI-1 renal, 19.3 µM. Besides, the TGI with SNB-19 CNS was determined as 23.6 µM; in the test on SK-OV-3 ovarian it was 29.8 µM; with HCT-116 colon, 3.89 µM.

As to `N#Cc1c(-c2ccc(Cl)cc2)n([O-])c2ccccc2[n+]1=O`, the GI50 with EKVX NSCLC was 5.63 µM; in the test on SNB-75 CNS it was 21.4 µM; with MOLT-4 leukemia it was 2.31 µM; in the test with A549 NSCLC, 22.2 µM; in the test on ACHN renal it was 4.2 µM; in the test with HS 578T breast, 24.6 µM. Also, the GI50 in the test with SNB-19 CNS is 20.6 µM; in the test on SK-OV-3 ovarian it was 24.8 µM; in the test with HCT-116 colon, 3.03 µM. The TGI in the test on EKVX NSCLC amounted to 20.5 µM; in the test with SNB-75 CNS, 39.5 µM; in the test on MOLT-4 leukemia, 4.77 µM; with A549 NSCLC, 55.4 µM; in the test on ACHN renal, 16.8 µM; in the test on HS 578T breast, 53.8 µM. Besides, the TGI in the test on SNB-19 CNS turned out to be 48.6 µM; in the test with SK-OV-3 ovarian, 72.3 µM; in the test on HCT-116 colon it was 11.1 µM.

`Oc1ccc(-c2nc(-c3ccc4oc5ccc(-c6[nH]c(-c7ccc(O)cc7)nc6-c6ccccc6)cc5c4c3)c(-c3ccccc3)[nH]2)cc1`: the GI50 is 8.69 µM with SNB-75 CNS; 2.34 µM with MOLT-4 leukemia; 4.26 µM with A549 NSCLC; 5.2 µM in the test on ACHN renal; 3.55 µM in the test with HS 578T breast; 13.7 µM with CAKI-1 renal. Also, the GI50 in the test with SNB-19 CNS was 19.1 µM; in the test on SK-OV-3 ovarian, 17 µM; in the test with HCT-116 colon it was 3.85 µM. For the same compound, the TGI with SNB-75 CNS turned out to be 67.6 µM; in the test with MOLT-4 leukemia it was 7.09 µM; in the test on A549 NSCLC, 25.5 µM; in the test on ACHN renal, 20.3 µM; in the test with HS 578T breast, 68.7 µM; with CAKI-1 renal, 41.7 µM. Further, the TGI with SNB-19 CNS was 83.5 µM; with SK-OV-3 ovarian it was 42.4 µM; in the test on HCT-116 colon it was more than 100 µM.

On to `Cc1cc(N2CCOCC2)nc(N(CCNc2ccnc3cc(Cl)ccc23)Cc2cccs2)n1`, for which the GI50 was 2.79 µM with EKVX NSCLC; 1.98 µM with SNB-75 CNS; 2.58 µM in the test on MOLT-4 leukemia; 3.08 µM in the test with A549 NSCLC; 1.91 µM in the test with ACHN renal; 2.24 µM in the test on HS 578T breast. The GI50 in the test with SNB-19 CNS was 4.24 µM. For the same compound, the TGI in the test on EKVX NSCLC turned out to be 44 µM; with SNB-75 CNS it was 5.25 µM; with MOLT-4 leukemia, 5.93 µM; with A549 NSCLC it was 12 µM; in the test on ACHN renal, 3.79 µM; in the test with HS 578T breast, 5.45 µM. This compound also registered a TGI in the test with SNB-19 CNS of 76.2 µM.
